# Assay results taken from PubChem BioAssay AID330 (DTP/NCI, 2004).
# Where “and” joins values, the source holds several entries; their conditions need not be identical. Equal values may be shown once. Inconclusive results and toxic doses are left out.
# System: P388 leukemia ip, CD2F1 mice, survival T/C
# Assay: NCI In Vivo Anticancer Drug Screen. Data for tumor model P388 Leukemia (intraperitoneal) in CD2F1 (CDF1) mice
# Settings: endpoint: median survival time, higher = longer survival
# Summary of the method: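 Mice carrying the transplanted tumor received test compound or vehicle. Survival was recorded in each group, and the value is the treated-group measurement divided by that of the vehicle-treated control group.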
# [1] = dose: 50.0 mg/kg/injection, schedule: Q01DX005 (ip), vehicle: Klucel (hydroxypropylcellulose) (HPC)
# [2] = dose: 100.0 mg/kg/injection, schedule: Q01DX005 (ip), vehicle: Klucel (hydroxypropylcellulose) (HPC)
# [3] = dose: 200.0 mg/kg/injection, schedule: Q01DX005 (ip), vehicle: Klucel (hydroxypropylcellulose) (HPC)
# [4] = dose: 50.0 mg/kg/injection, schedule: Q01DX005 (ip), vehicle: saline with Tween-80
# [5] = dose: 100.0 mg/kg/injection, schedule: Q01DX005 (ip), vehicle: saline with Tween-80
# [6] = dose: 200.0 mg/kg/injection, schedule: Q01DX005 (ip), vehicle: saline with Tween-80
# [7] = dose: 50.0 mg/kg/injection, schedule: Q01DX005 (ip), vehicle: saline
# [8] = dose: 100.0 mg/kg/injection, schedule: Q01DX005 (ip), vehicle: saline
# [9] = dose: 200.0 mg/kg/injection, schedule: Q01DX005 (ip), vehicle: saline
# [10] = dose: 100.0 mg/kg/injection, schedule: Q01DX001 (ip), vehicle: saline with Tween-80
# [11] = dose: 200.0 mg/kg/injection, schedule: Q01DX001 (ip), vehicle: saline with Tween-80
smiles,measurement,setting,value
Ic1ncn(CCN2CCOCC2)c1I,T/C,"dose: 25.0 mg/kg/injection, schedule: Q01DX005 (ip), vehicle: Klucel (hydroxypropylcellulose) (HPC)",88 % of control
same,T/C,[1],97 % of control
same,T/C,[2],94 % of control
same,T/C,[3],97 % of control
CCCCCCCC(=O)Nc1nnc(SCCCCCCCCCCCCSc2nnc(NC(=O)CCCCCCC)s2)s1,T/C,[1],90 % of control
same,T/C,[2],89 % of control
same,T/C,[3],86 % of control
COc1ccc(CC(O)c2cc(OC)c(OC)c(OC)c2)cc1O (stereo not given),T/C,"dose: 2.5 mg/kg/injection, schedule: Q01DX009 (ip), vehicle: saline + alcohol",108 % of control
same,T/C,"dose: 5.0 mg/kg/injection, schedule: Q01DX009 (ip), vehicle: saline + alcohol",118 % of control
same,T/C,"dose: 10.0 mg/kg/injection, schedule: Q01DX009 (ip), vehicle: saline + alcohol",114 % of control
same,T/C,"dose: 20.0 mg/kg/injection, schedule: Q01DX009 (ip), vehicle: saline + alcohol",101 % of control
same,T/C,"dose: 22.5 mg/kg/injection, schedule: Q01DX009 (ip), vehicle: saline + Tween-80 + alcohol",108 % of control
same,T/C,"dose: 45.0 mg/kg/injection, schedule: Q01DX009 (ip), vehicle: saline + Tween-80 + alcohol",114 % of control
same,T/C,"dose: 90.0 mg/kg/injection, schedule: Q01DX009 (ip), vehicle: saline + Tween-80 + alcohol",107 % of control
same,T/C,"dose: 180.0 mg/kg/injection, schedule: Q01DX009 (ip), vehicle: saline + Tween-80 + alcohol",123 % of control
CCc1nc2nc(C)cc(C)n2n1,T/C,"dose: 25.0 mg/kg/injection, schedule: Q01DX009 (ip), vehicle: saline with Tween-80",100 % of control
same,T/C,"dose: 50.0 mg/kg/injection, schedule: Q01DX009 (ip), vehicle: saline with Tween-80",97 % of control
same,T/C,"dose: 100.0 mg/kg/injection, schedule: Q01DX009 (ip), vehicle: saline with Tween-80",103 % of control
N#CC(c1c(Cl)cccc1N1CCCCC1)N1CCCCC1 (stereo not given),T/C,[4],108 % of control
same,T/C,[5],104 % of control
same,T/C,[6],100 % of control
CC(C)(C)CC(C)(C)NCC(O)COc1ccc(C(C)(C)c2ccc(OCC(O)CNC(C)(C)CC(C)(C)C)cc2)cc1 (stereo not given),T/C,"dose: 3.13 mg/kg/injection, schedule: Q01DX009 (ip), vehicle: other",104 % of control
same,T/C,"dose: 3.13 mg/kg/injection, schedule: Q04DX003 (ip), vehicle: other",108 % of control
same,T/C,"dose: 6.25 mg/kg/injection, schedule: Q01DX009 (ip), vehicle: other",90 % of control
same,T/C,"dose: 6.25 mg/kg/injection, schedule: Q04DX003 (ip), vehicle: other",100 % of control
O=c1[nH]nc(Sc2ccccc2)c2nncn12,T/C,[4],100 % of control
same,T/C,[5],92 % of control
COc1ccc(C(C)(C)c2cc3c(cc2OCCO)OCO3)cc1,T/C,"dose: 60.0 mg/kg/injection, schedule: Q01DX005 (ip), vehicle: saline with Tween-80",96 % of control
same,T/C,"dose: 120.0 mg/kg/injection, schedule: Q01DX005 (ip), vehicle: saline with Tween-80",101 % of control
same,T/C,"dose: 240.0 mg/kg/injection, schedule: Q01DX005 (ip), vehicle: saline with Tween-80",105 % of control
Cc1cc2nc(NN=O)sc2cc1C,T/C,"dose: 3.12 mg/kg/injection, schedule: Q01DX009 (ip), vehicle: water",109 % of control
same,T/C,"dose: 6.25 mg/kg/injection, schedule: Q01DX009 (ip), vehicle: water",97 % of control
same,T/C,"dose: 12.5 mg/kg/injection, schedule: Q01DX009 (ip), vehicle: water",106 % of control
same,T/C,"dose: 25.0 mg/kg/injection, schedule: Q01DX009 (ip), vehicle: water",104 % of control (2×) and 97 % of control
same,T/C,"dose: 50.0 mg/kg/injection, schedule: Q01DX009 (ip), vehicle: water",102 % of control and 103 % of control and 108 % of control
same,T/C,"dose: 100.0 mg/kg/injection, schedule: Q01DX009 (ip), vehicle: water",123 % of control
FC(F)(F)c1cc([C@H]2[C@@H]3CCCCN32)c2cccc(C(F)(F)F)c2n1 (stereo not given in full),T/C,"dose: 12.5 mg/kg/injection, schedule: Q04DX003 (ip), vehicle: distilled water + Tween-80",93 % of control
same,T/C,"dose: 25.0 mg/kg/injection, schedule: Q04DX003 (ip), vehicle: distilled water + Tween-80",97 % of control
same,T/C,"dose: 50.0 mg/kg/injection, schedule: Q04DX003 (ip), vehicle: distilled water + Tween-80",96 % of control
same,T/C,"dose: 100.0 mg/kg/injection, schedule: Q04DX003 (ip), vehicle: distilled water + Tween-80",95 % of control
same,T/C,"dose: 200.0 mg/kg/injection, schedule: Q04DX003 (ip), vehicle: distilled water + Tween-80",99 % of control
same,T/C,"dose: 400.0 mg/kg/injection, schedule: Q04DX003 (ip), vehicle: distilled water + Tween-80",103 % of control
Cc1ccccc1N=C1SCC(=O)N1c1ccccc1C,T/C,[4],96 % of control
same,T/C,[5],99 % of control
same,T/C,[6],91 % of control
CC(=NCc1ccccc1)NOCc1ccccc1,T/C,[7],114 % of control
same,T/C,[8],108 % of control
same,T/C,[9],101 % of control
COC1C(c2cc(C(N)=O)n(-c3ccc([N+](=O)[O-])cc3)n2)OC2OC(C)(C)OC21 (stereo not given),T/C,[10],100 % of control
same,T/C,[11],96 % of control
same,T/C,"dose: 400.0 mg/kg/injection, schedule: Q01DX001 (ip), vehicle: saline with Tween-80",94 % of control
CC[n+]1c(/C=C/c2ccc(N(CCC(=O)O)CCC(=O)O)cc2C)sc2ccccc21,T/C,"dose: 12.5 mg/kg/injection, schedule: Q04DX003 (ip), vehicle: saline with Tween-80",99 % of control
same,T/C,"dose: 25.0 mg/kg/injection, schedule: Q04DX003 (ip), vehicle: saline with Tween-80",95 % of control
same,T/C,"dose: 50.0 mg/kg/injection, schedule: Q04DX003 (ip), vehicle: saline with Tween-80",100 % of control
Nc1cc2c3c(cccc3c1)C(=O)N2,T/C,[10],106 % of control
same,T/C,[11],106 % of control
NNc1ccc2nnc(Cl)n2n1,T/C,"dose: 100.0 mg/kg/injection, schedule: Q04DX002 (ip), vehicle: saline",101 % of control
same,T/C,"dose: 200.0 mg/kg/injection, schedule: Q04DX002 (ip), vehicle: saline",102 % of control
same,T/C,"dose: 400.0 mg/kg/injection, schedule: Q04DX002 (ip), vehicle: saline",108 % of control
C/C=C1\CN2CCC34c5ccc(OC)cc5N(C)C3C2CC1C4C(=O)OC (stereo not given),T/C,"dose: 17.25 mg/kg/injection, schedule: Q01DX005 (ip), vehicle: acid diluted with saline",96 % of control
same,T/C,"dose: 34.5 mg/kg/injection, schedule: Q01DX005 (ip), vehicle: acid diluted with saline",94 % of control
CC1(C)OC(COCCOCCOCCCC#N)C(COCCOCCOCCCC#N)O1 (stereo not given),T/C,"dose: 25.0 mg/kg/injection, schedule: Q01DX005 (ip), vehicle: saline",100 % of control
same,T/C,[7],103 % of control
same,T/C,[8],107 % of control
same,T/C,[9],98 % of control
COc1cccc(C(Cc2ccccc2)Nc2ccccc2)c1OC (stereo not given),T/C,"dose: 3.0 mg/kg/injection, schedule: Q01DX005 (ip), vehicle: Klucel (hydroxypropylcellulose) (HPC)",94 % of control
same,T/C,"dose: 6.0 mg/kg/injection, schedule: Q01DX005 (ip), vehicle: Klucel (hydroxypropylcellulose) (HPC)",93 % of control
same,T/C,"dose: 12.0 mg/kg/injection, schedule: Q01DX005 (ip), vehicle: Klucel (hydroxypropylcellulose) (HPC)",93 % of control
same,T/C,[1],92 % of control
same,T/C,[3],88 % of control
CN(C)CC(OCCc1ccccc1)C(Cl)(Cl)Cl (stereo not given),T/C,"dose: 50.0 mg/kg/injection, schedule: Q01DX009 (ip), vehicle: Klucel (hydroxypropylcellulose) (HPC)",107 % of control
same,T/C,"dose: 100.0 mg/kg/injection, schedule: Q01DX009 (ip), vehicle: Klucel (hydroxypropylcellulose) (HPC)",109 % of control
same,T/C,"dose: 200.0 mg/kg/injection, schedule: Q01DX009 (ip), vehicle: Klucel (hydroxypropylcellulose) (HPC)",109 % of control
O=C(CCCCCCC(=O)ON1C(=O)CCC1=O)ON1C(=O)CCC1=O,T/C,[4],122 % of control
CN1C(=O)/C(=C2\SC(=O)N(Cc3nc4ccccc4[nH]3)C2=O)c2cc(Br)ccc21,T/C,"dose: 100.0 mg/kg/injection, schedule: Q01DX001 (ip), vehicle: Klucel (hydroxypropylcellulose) (HPC)",98 % of control
same,T/C,"dose: 200.0 mg/kg/injection, schedule: Q01DX001 (ip), vehicle: Klucel (hydroxypropylcellulose) (HPC)",95 % of control
same,T/C,"dose: 400.0 mg/kg/injection, schedule: Q01DX001 (ip), vehicle: Klucel (hydroxypropylcellulose) (HPC)",88 % of control
Nc1cc(Cl)c2[nH]cnc2n1,T/C,"dose: 25.0 mg/kg/injection, schedule: Q01DX005 (ip), vehicle: distilled water + Tween-80",102 % of control
same,T/C,"dose: 50.0 mg/kg/injection, schedule: Q01DX005 (ip), vehicle: distilled water + Tween-80",111 % of control
same,T/C,"dose: 200.0 mg/kg/injection, schedule: Q01DX005 (ip), vehicle: distilled water + Tween-80",152 % of control
